We go through 16 compounds from ChEMBL document CHEMBL1201862, “PubChem BioAssay data set” (2004).

Activity calls are given as the source filed them.

Data set [1] concerns the target T1, Short transient receptor potential channel 4 (Mus musculus, UniProt Q9QUQ5).
T1 sequence (Q9QUQ5 whole entry): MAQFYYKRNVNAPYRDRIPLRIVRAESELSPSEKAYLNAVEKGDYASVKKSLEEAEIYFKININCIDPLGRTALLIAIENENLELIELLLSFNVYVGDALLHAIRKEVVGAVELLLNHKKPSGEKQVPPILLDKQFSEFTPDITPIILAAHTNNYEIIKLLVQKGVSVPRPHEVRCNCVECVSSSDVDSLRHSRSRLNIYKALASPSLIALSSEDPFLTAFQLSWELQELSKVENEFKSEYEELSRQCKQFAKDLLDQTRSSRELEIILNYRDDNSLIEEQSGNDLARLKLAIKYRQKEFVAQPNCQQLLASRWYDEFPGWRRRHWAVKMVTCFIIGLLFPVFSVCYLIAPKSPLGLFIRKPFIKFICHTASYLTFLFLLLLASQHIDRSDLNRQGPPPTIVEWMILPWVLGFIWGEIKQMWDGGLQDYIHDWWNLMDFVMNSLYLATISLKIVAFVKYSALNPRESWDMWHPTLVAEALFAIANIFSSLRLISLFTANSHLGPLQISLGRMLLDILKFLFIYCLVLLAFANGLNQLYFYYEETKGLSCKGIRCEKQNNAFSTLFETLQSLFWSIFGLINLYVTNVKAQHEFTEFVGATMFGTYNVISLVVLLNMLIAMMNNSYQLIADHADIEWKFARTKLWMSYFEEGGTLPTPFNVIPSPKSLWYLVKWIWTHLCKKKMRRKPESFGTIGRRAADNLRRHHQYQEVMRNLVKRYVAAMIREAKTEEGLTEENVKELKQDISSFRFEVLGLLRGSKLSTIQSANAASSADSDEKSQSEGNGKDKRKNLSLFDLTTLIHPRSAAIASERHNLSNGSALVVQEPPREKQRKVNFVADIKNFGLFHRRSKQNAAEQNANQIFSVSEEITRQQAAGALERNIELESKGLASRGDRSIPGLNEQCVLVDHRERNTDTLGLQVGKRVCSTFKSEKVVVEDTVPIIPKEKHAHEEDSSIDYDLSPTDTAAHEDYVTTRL
Briefly: mouse TRPC4 channel inhibitors, dose response, cell-based, HEK293 TRPC4/mu-opioid, Fluo-4 calcium (AID 434942).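 Note: potency of inhibitors blocking the TRPC4 calcium response.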 It counts as functional.

In data set [2] the test system is HEK293. Briefly: cells. It counts as functional, cell-based. Particulars: Homo sapiens.
The target in data set [3] is Nucleotide-binding oligomerization domain-containing protein 2 (Homo sapiens, UniProt Q9HC29). Nature of the data set: NOD2 signaling inhibitors, cell-based, luminescence, uHTS, HEK293 (AID 1566). It counts as functional.
Chain of Nucleotide-binding oligomerization domain-containing protein 2 (Q9HC29 whole entry, the tested form may be a part): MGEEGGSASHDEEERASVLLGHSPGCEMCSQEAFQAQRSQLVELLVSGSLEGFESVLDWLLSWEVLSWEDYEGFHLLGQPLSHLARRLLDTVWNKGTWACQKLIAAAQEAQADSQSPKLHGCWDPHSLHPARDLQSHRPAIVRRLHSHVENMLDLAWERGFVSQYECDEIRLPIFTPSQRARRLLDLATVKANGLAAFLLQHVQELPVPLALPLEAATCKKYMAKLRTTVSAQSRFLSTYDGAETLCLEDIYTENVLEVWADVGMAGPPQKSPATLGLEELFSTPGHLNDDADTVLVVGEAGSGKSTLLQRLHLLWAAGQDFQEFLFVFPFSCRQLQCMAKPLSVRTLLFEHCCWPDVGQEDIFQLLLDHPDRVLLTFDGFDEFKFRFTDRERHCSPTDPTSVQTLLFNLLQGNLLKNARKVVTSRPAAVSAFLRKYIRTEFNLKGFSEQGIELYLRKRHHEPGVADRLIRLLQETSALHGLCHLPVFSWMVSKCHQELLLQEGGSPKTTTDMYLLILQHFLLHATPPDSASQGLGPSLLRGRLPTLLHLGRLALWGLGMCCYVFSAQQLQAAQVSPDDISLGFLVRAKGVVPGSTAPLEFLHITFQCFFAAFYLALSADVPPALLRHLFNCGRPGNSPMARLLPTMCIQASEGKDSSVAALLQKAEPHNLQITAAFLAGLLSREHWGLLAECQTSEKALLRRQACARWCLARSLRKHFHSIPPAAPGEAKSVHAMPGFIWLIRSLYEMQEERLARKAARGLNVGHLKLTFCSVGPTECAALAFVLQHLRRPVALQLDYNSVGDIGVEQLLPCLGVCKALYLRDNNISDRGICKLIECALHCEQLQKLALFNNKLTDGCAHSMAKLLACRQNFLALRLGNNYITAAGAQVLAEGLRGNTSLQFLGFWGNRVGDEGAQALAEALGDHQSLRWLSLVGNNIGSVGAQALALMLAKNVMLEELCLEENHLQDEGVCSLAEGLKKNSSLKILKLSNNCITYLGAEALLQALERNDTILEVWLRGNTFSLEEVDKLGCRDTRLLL
Data set [4] relates to HEK293. Nature of the data set: cells. The data set is classed as functional, cell-based. Particulars: Homo sapiens. The source holds these as a separate data set.
Data set [5] has as its system HEK293. Nature of the data set: NOD1 signaling inhibitors, primary screen, cell-based, luminescence, uHTS (AID 1578). It counts as functional. Particulars: Homo sapiens.
The subject of data set [6] is HEK293. Briefly: NOD2 signaling inhibitors in MDP-stimulated cells, cell-based, uHTS, luminescence (AID 2001). Particulars: Homo sapiens. The data set is classed as functional.
Data set [7] deals with HEK293. Nature of the data set: cells. The data set is classed as functional, cell-based. The following applies: Homo sapiens. This is another data set of the same source.
The target of data set [8] is Cytochrome P450 3A4 (Homo sapiens, UniProt P08684). The following applies: Potency.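 Note: confirmatory qHTS run detecting inhibitors and substrates of CYP3A4.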
Chain of Cytochrome P450 3A4 (P08684 whole entry): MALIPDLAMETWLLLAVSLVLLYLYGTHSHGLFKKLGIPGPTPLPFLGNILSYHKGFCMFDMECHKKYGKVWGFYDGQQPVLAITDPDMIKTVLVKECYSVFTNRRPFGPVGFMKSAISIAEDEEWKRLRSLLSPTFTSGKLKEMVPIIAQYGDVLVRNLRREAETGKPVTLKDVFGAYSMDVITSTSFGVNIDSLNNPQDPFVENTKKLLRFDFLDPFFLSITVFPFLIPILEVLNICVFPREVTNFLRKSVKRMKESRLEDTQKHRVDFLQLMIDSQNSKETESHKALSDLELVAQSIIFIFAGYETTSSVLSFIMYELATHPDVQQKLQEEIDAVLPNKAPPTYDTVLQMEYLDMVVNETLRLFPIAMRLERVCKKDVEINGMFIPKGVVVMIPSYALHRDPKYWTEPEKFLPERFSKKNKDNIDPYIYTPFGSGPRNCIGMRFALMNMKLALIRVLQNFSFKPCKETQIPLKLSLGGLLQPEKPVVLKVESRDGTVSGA
Data set [9] addresses T2, NADPH oxidase 1 (Homo sapiens, UniProt Q9Y5S8).
T2 sequence (Q9Y5S8 whole entry): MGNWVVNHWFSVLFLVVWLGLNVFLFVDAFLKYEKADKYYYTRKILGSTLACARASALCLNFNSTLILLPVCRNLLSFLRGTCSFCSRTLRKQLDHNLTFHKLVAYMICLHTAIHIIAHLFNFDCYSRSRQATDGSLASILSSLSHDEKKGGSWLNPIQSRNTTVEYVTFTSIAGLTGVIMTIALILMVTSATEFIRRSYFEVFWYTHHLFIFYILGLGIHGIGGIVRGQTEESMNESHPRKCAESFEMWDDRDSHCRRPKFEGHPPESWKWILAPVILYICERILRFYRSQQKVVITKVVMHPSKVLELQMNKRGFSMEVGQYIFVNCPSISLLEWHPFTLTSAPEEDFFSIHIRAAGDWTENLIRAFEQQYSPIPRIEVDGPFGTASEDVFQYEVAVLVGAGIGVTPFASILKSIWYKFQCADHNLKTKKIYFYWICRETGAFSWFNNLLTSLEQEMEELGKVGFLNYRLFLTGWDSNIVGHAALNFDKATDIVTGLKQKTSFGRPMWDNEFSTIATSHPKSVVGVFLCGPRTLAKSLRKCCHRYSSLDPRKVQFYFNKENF
The data set is classed as functional, cell-based.

Data set [10] concerns the target Cytochrome P450 2C9 (Homo sapiens, UniProt P11712).
Data set [11] deals with Cytochrome P450 2C19 (Homo sapiens, UniProt P33261). Briefly: Cytochrome panel assay with activity outcomes. Panel member name: p450-cyp2c19 Compounds with AC50 equal or less than 10 uM are considered active. It counts as functional. The following applies: read-out: AC50.
Chain of Cytochrome P450 2C19 (P33261 whole entry): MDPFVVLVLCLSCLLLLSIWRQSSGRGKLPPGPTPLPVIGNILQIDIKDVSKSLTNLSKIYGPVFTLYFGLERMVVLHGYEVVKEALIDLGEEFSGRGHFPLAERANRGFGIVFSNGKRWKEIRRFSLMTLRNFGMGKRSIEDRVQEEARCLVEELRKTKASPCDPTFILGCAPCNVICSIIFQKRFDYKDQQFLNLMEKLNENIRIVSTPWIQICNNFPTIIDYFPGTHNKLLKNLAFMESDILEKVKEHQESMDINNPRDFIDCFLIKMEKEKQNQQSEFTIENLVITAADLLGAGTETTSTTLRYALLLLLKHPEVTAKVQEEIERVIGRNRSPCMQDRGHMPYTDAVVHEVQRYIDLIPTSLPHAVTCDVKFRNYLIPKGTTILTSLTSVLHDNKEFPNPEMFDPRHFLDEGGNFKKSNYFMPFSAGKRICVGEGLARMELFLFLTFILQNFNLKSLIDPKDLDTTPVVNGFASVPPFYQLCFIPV
The subject of data set [12] is Vero. Briefly: cells. The data set is classed as functional. Particulars: Chlorocebus sabaeus.
For data set [13], the target named is T3, High affinity choline transporter 1 (Homo sapiens, UniProt Q9GZV3).
T3 sequence (Q9GZV3 whole entry): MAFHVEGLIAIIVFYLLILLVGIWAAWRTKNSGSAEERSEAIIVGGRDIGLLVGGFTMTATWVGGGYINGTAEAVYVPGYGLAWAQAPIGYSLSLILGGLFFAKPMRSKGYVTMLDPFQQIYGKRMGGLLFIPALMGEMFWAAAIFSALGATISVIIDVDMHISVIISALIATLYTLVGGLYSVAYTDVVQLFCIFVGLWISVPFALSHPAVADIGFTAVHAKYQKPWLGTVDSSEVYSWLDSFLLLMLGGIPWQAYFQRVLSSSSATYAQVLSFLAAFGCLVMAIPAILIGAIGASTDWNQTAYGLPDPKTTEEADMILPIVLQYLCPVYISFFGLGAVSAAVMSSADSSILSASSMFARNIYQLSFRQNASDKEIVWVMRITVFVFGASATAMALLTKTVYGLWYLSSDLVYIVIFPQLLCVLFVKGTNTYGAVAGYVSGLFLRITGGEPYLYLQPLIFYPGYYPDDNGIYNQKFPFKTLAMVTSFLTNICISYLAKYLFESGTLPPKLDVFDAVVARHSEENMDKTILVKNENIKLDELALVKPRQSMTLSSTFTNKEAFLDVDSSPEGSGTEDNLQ
Nature of the data set: CHT inhibitors, dose response, cell-based, 5-point CRC, membrane potential dye (AID 504840). It counts as functional.

In data set [14] the target is T1, Short transient receptor potential channel 4. Nature of the data set: mouse TRPC4 channel activators, dose response, cell-based, HEK293 TRPC4/mu-opioid, Fluo-4 calcium (AID 434937). It counts as functional.
Data set [15] can be described thus: Luminescence Cell-Based Dose Retest to Confirm Inhibitors of Cancer Stem Cells. [Related pubchem assays (depositor defined):AID2717, AID2721]. It counts as functional. Particulars: Homo sapiens.
Data set [16] has as its target T4, Rac GTPase-activating protein 1 (Homo sapiens, UniProt Q9H0H5).
T4 sequence (Q9H0H5 whole entry): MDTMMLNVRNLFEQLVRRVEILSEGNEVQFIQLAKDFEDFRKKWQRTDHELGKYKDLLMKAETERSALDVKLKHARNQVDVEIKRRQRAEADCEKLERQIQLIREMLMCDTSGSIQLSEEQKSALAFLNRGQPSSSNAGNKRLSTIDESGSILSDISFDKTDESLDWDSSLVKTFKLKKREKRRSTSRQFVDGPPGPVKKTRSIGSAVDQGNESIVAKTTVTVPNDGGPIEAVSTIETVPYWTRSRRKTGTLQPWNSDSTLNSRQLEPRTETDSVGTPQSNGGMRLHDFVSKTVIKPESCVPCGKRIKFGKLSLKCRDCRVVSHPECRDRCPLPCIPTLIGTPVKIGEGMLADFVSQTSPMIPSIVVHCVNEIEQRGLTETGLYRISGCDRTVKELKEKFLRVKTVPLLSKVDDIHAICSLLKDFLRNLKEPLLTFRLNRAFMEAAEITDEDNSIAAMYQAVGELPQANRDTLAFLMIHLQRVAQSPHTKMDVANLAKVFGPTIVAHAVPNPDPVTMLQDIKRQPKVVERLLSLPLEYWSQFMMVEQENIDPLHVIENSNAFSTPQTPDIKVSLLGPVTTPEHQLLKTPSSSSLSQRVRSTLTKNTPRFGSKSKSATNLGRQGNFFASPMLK
Briefly: MgcRacGAP GTPase-activating activity inhibitors, confirmation, biochemical, ADP Hunter fluorescence, primary and confirmatory (AID 624330). The data set is classed as functional.

Chain of Cytochrome P450 2C9 (P11712 whole entry): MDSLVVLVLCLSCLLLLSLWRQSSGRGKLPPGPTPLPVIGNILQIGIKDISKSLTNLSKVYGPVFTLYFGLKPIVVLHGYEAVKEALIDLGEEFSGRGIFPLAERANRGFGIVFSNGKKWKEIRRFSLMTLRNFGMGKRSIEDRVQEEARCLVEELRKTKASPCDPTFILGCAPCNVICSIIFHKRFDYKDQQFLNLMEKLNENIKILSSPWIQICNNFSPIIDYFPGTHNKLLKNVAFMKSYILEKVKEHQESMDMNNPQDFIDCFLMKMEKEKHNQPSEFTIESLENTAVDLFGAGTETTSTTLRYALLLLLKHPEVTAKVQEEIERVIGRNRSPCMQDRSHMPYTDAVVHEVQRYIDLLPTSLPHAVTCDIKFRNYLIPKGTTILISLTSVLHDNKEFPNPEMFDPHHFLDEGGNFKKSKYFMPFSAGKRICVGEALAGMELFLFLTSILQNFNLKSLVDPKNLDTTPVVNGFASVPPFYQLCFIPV

Take `COc1ccc(F)cc1C(=O)C1CCCN(Cc2ccc3c(c2)OCCO3)C1` (configuration not stated): in data set [1], the EC50 – broadly, the concentration giving half of the maximal effect – is 1.33 µM (active).
For `CCc1ccc(OCC(=O)Nc2ccc(-c3cc4ccccc4oc3=O)c(OC)c2)cc1`, the IC50 (as a rule, the point on the concentration scale where inhibition reaches its midpoint) was 11.3 µM (active) in [2], > 20 µM (inactive) in [4], 2.94 µM (active) in data set [6] and 2.79 µM (active) in [7]. Also, the values for the EC50 in data set [3] and in data set [5] were 5.25 µM (active) and 2.18 µM (active), respectively.
For the compound `CNC(=O)[C@@]1(C)C=C[C@@H](Cc2ccccc2)N1C(=O)OC`, the AC50 (usually the concentration giving half of the maximal activity seen) in data set [8] was 3.16 µM (inconclusive).
For the compound `CSc1ccc(NC(=O)Nc2ccc(N(C)C)cc2)cc1`, the IC50 in [9] is 0.0777 µM (active).
For the compound `CCN(CC)c1ccc(NC(=O)Nc2ccc(OCc3ccccc3)cc2)cc1`, in data set [9], the IC50 was 0.235 µM (active).
As to `CCC(=O)CC(NC(=O)OC)c1ccccc1` (configuration not stated), in data set [8], the AC50 was 6.31 µM (inconclusive).
On to `Cc1ccc(OP(=O)(Oc2ccc(C)cc2)N2C=Cc3ccccc3[C@H]2C#N)cc1`, for which the AC50 entry in [10] is reported as “inconclusive”.
As to `Cc1cc(C)cc(NC(S)=NC2CC3CCC(C2)N3Cc2ccco2)c1` (configuration not stated), the AC50 is 35.5 µM (inconclusive) in data set [11] and “inconclusive” in data set [10].
Take `N#Cc1cccc(-c2nc3cnc(N4CCOCC4)nc3n(Cc3ccc(F)cc3)c2=O)c1`: the AC50 result in [10] was “inconclusive”.
In the case of `Cc1cc(OCc2cc(C(=O)NCCN3CCCCC3CO)no2)cc(C)c1Cl` (configuration not stated), the CC50 (commonly the concentration giving 50% cytotoxicity) in [12] is > 25 µM (active). The EC50 in data set [1] was 2.99 µM (active). Further, the IC50 in data set [13] was 18.2 µM (active).
With `Fc1ccc(NC(=S)NNC(=S)Nc2ccccc2)cc1`, the IC50 in data set [9] is 0.218 µM (active).
Turning to `O=C(Oc1ccc([N+](=O)[O-])cc1)c1sc2ccccc2c1Cl`, the IC50 in data set [9] is recorded as > 17 µM (not active).
Consider `CN(C)C(CNC(=O)Cc1cccc(C(F)(F)F)c1)c1ccccc1` (configuration not stated), for which the values for the EC50 in data set [14] and in data set [1] were 0.0947 µM (active) and 0.0093 µM (active), respectively.
On to `COc1cc(/C=C/C(=O)c2ccc3c(c2)OCO3)cc(Cl)c1O`, for which the EC50 in data set [14] is 5.96 µM (active). Moreover, the AC50 in data set [15] is 6.39 µM (active). Besides, the IC50 in data set [16] was 93.6 µM (active).
Regarding `CCOC(=O)C1(O)Oc2cc(OC)cc(OC)c2C(=O)C1c1ccccc1` (configuration not stated) [2-ETHOXYCARBONYL-2-HYDROXY-5,7-DIMETHOXYISOFLAVANONE], in data set [8], the AC50 is 20 µM (inconclusive).
The same measure, in the same setting: the value for `Nc1ccc2ccccc2c1` [NAPHTHYLAMINE] was 12.6 µM (inconclusive).
